From US20260209220A1, “SUBSTITUTED TETRAHYDROPYRROLO-PYRIDINONE COMPOUNDS AND THEIR USE IN TREATING MEDICAL CONDITIONS” (Karuna Therapeutics, Inc., priority 2022, published 2026)

Legend:
[1] = target: T1, hM4 receptors (Homo sapiens, UniProt P08173); test: Human M4 PAM PERK assay (CHO cells, TR-FRET, with EC20 acetylcholine); format: cell-based
T1 construct: expressed in transfected cells; host or cells: CHO cells
T1 sequence (P08173 1-479): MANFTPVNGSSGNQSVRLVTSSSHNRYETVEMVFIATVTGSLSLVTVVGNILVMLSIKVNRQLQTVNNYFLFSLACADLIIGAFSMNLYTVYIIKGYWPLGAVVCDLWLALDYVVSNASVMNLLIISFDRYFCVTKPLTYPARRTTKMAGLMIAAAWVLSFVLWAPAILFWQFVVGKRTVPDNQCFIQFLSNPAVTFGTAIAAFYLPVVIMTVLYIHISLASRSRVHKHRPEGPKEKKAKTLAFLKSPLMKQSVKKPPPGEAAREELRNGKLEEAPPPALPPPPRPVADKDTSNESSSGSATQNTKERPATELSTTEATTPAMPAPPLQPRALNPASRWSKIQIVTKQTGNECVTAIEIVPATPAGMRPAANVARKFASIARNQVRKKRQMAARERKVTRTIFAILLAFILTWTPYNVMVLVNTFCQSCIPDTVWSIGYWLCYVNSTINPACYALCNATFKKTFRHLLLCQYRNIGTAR
Method: (§1) Chinese hamster ovary (CHO) cells expressing either hM4 or rM4 receptors were frozen in assay ready vials (5×10^6 cells/vial) after bulking-up in culture. The day before an assay, vial(s) were thawed and cells seeded in 384 well white proxiplates at 1000/well for hM4 cells and at 2000/well for rM4 cells, in 10 μL of growth media (Hams/F12 with glutamax and 10% FCS) and incubated overnight at 37° C./5% CO2.
(§2) On the following morning, the growth media was removed by ‘flicking out’ over a bin, patting the inverted plate onto tissue, and then replacing with 10 μL of wash media (Hams/F12 with glutamax and 8 mM HEPES, NB: serum free). Then, the wash media was removed in the same way and replaced with 8 μL/well of the serum free media. Plates were then re-incubated for a further 4 hours at 37° C./5% CO2.
(§3) Compounds for testing were solubilized to 10 mM in DMSO and compound addition plates, consisting of ten-point concentration response curves (CRC) in duplicate points (10 μM top concentration, ½ log dilution series), were prepared by acoustic dispensing and the compound management group.
(§4) After the 4-hour incubation in serum free media, a 4 μL aliquot of the 3×compound solution containing an EC20 of acetylcholine (10 nM final concentration) was added to the cell plate using a 384 well plate to plate transfer. Then, the plate lid was replaced, and the cells incubated for 5 mins at 37° C./5% CO2. Following this final incubation, all cellular processes were stopped by the addition of 4 μL/well of lysis and blocking buffer and plates were incubated for 30 minutes at RT on an orbital shaker (gentle setting). Then, a final addition of 4 μL/well of antibody detection mix, containing both the Europium-Cryptate (donor) and d2 (acceptor) tagged detection components, was added followed by a further 2-hour incubation at RT, and then the plate was read using a TR-FRET (time resolved fluorescence resonance energy transfer) based protocol.

[2] = target: T2, rM4 receptors (Rattus norvegicus, UniProt P08485); test: Rat M4 PAM PERK assay (CHO cells, TR-FRET, with EC20 acetylcholine); format: cell-based
T2 construct: expressed in transfected cells; host or cells: CHO cells
T2 sequence (P08485 1-478): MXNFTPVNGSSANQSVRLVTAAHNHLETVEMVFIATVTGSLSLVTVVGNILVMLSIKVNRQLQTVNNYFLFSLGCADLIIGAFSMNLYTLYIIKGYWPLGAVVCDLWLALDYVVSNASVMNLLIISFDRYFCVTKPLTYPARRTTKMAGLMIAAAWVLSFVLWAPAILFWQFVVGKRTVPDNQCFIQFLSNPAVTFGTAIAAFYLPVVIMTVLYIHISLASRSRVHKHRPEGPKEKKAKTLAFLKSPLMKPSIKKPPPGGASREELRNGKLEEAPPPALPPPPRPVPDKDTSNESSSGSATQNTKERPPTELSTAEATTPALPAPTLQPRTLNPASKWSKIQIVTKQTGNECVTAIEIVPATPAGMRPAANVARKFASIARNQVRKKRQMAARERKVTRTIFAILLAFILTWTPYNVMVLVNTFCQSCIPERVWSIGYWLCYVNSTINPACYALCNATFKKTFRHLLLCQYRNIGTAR
Method: as §1, §2, §3, §4

[3] = target: T3, human M4 receptor (Homo sapiens, UniProt P08173); test: M4 GTPγS PAM assay (CHO-K1 membranes, 35S-GTP binding, with EC20 acetylcholine); format: biochemical; details: with EC20 acetylcholine (40 nM)
T3 construct: expressed in transfected cells; host or cells: CHO-K1 cells (membranes)
T3 sequence (P08173 1-479): T1 sequence (P08173 1-479)
Method: The M4 GTPγS PAM method was used. Membranes were prepared for GTPgS binding assays from CHO-K1 cells stably expressing human M4 receptor. Briefly, cells were grown in 5-layer cell culture flasks. Cells were washed with 50 mL of PBS and then dissociated with 0.05% trypsin. Dissociated cells were then collected by centrifugation at 650×g for 8 minutes at 4° C. Pellets were washed again in PBS by centrifugation and resuspended in 30 mL of 20 mM HEPES, 10 mM EDTA, pH 7.4. After sitting on ice for 30 min, membranes were collected by centrifugation at 50000×g for 15′ at 4° C., resuspended in 30 mL of 20 mM HEPES, 0.1 mM EDTA, pH 7.4 and collected again by centrifugation. Pellets were then washed twice by centrifugation in 30 mL of 20 mM HEPES, pH 7.4, and stored at −80° C. until the day of the assay. On the day of the assay, pellets were thawed on ice and resuspended in 1 mL of 20 mM HEPES, pH 7.4, 10 mM MgCl2, 100 mM NaCl using dounce homogenization. Membrane protein concentration is determined by BCA protein assay (Promega, Madison, WI) according to Promega guidelines.
On the day of the assay, serial dilutions of test PAM compounds were brought up in assay buffer (20 mM HEPES, 10 mM MgCl2, 100 mM NaCl) at 4X final assay concentration. […] of membrane homogenates (containing […] of membrane protein) were prepared in assay buffer supplemented with GDP at […] final assay concentration (final assay concentration of GDP is 5 μM for M2 and 0.1 μM for M4) and dispensed into 96 well polypropylene, U-bottom Greiner plates. 25 ml of vehicle or test PAM compound at 4× of final assay concentration diluted in the assay buffer were added to membrane and plates are incubated for 10-15 minutes at room temperature with gentle shaking. Then, […] of EC20 acetylcholine in assay buffer at 4× final assay concentration was added to assay plates (EC20 final assay concentrations was 40 nM for human M4).
Plates were then incubated, with shaking, for an additional 10-15 minutes. […] of 0.4 nM 35S-GTP (Perkin Elmer, Waltham, MA) in assay buffer was added to assay mixtures. The binding reaction is left on the shaker for 1 hour at room temperature. Membranes in assay reactions were then transferred to GF/C filter plates (Unifilter, Perkin Elmer) and washed three times using a FilterMate Harvester (Perkin Elmer) with cold assay buffer containing no GDP. Filter plates were then dried at 40° C. overnight followed by the addition of […] of Beta Plate Scintillation liquid. Plates are top and bottom sealed before being read on TopCount scintillation counter (Perkin Elmer, Waltham, MA).

| Structure (SMILES) | EC50 [1] [nM] | EC50 [2] [nM] | EC50 [3] [nM] |
| --- | --- | --- | --- |
| Cc1cc(=O)n(C)c2c1CN(C(=O)CC1CN(c3cnn(C4CC4)c3)C1)C2 [Compound I-37] | 200 to 1000 | > 1000 | 200 to 1000 |
| Cc1c2c(n(C)c(=O)c1C)CN(C(=O)CC1CN(c3nc(C4CC4)c(C(F)(F)F)s3)C1)C2 [Compound I-65, 6-(2-(1-(4-cyclopropyl-5-(trifluoromethyl)thiazol-2-yl)azetidin-3-yl)acetyl)-1,3,4-trimethyl-1,5,6,7-tetrahydro-2H-pyrrolo[3,4-b]pyridin-2-one] | 200 to 1000 | 200 to 1000 | < 50 |
| Cc1cc(=O)n(C)c2c1CN(C(=O)CC1CN(c3ccnc(C(F)(F)F)n3)C1)C2 [Compound I-23] | 200 to 1000 | 200 to 1000 | 200 to 1000 |
| Cc1cc(=O)n(C)c2c1CN(C(=O)CC1CN(c3cnn(C(F)(F)F)c3)C1)C2 [Compound I-34] | > 1000 | > 1000 | > 1000 |
| Cc1cc(=O)n(C)c2c1CN(C(=O)CC1CN(c3cnc(C(F)(F)F)cn3)C1)C2 [Compound I-26] | 200 to 1000 | 50 to 200 | > 1000 |
| Cc1cc(=O)n(C)c2c1CN(C(=O)CC1CN(c3cnc(C(F)(F)F)nc3)C1)C2 [Compound I-21] | 200 to 1000 | 50 to 200 | > 1000 |
| Cc1cc(=O)n(C)c2c1CN(C(=O)CC1CN(c3ccc(C(F)(F)F)cn3)C1)C2 [Compound I-8] | 200 to 1000 | > 1000 | > 1000 |

Continued, values first:

| EC50 [1] [nM] | EC50 [2] [nM] | EC50 [3] [nM] | Structure (SMILES) |
| --- | --- | --- | --- |
| 50 to 200 | 50 to 200 | 50 to 200 | Cc1cc(=O)n(C)c2c1CN(C(=O)CC1CN(c3nc(C4CC4)ns3)C1)C2 [Compound I-35] |
| < 50 | 50 to 200 | < 50 | Cc1c2c(n(C)c(=O)c1Cl)CN(C(=O)CC1CN(c3ccnc(C(F)(F)F)c3)C1)C2C (stereo not drawn) [Compound I-118, 3-Chloro-1,4,5-trimethyl-6-(2-(1-(2-(trifluoromethyl)pyridin-4-yl)azetidin-3-yl)acetyl)-1,5,6,7-tetrahydro-2H-pyrrolo[3,4-b]pyridin-2-one] |
| 50 to 200 | 200 to 1000 | 50 to 200 | Cc1c2c(n(C)c(=O)c1C)CN(C(=O)CC1CN(c3nc(C(F)(F)F)c(C4CC4)s3)C1)C2 [Compound I-64, 6-(2-(1-(5-Cyclopropyl-4-(trifluoromethyl)thiazol-2-yl)azetidin-3-yl)acetyl)-1,3,4-trimethyl-1,5,6,7-tetrahydro-2H-pyrrolo[3,4-b]pyridin-2-one] |
| 50 to 200 | 50 to 200 | 200 to 1000 | Cc1cc(=O)n(C)c2c1CN(C(=O)CC1CN(c3nc(C(F)(F)F)cs3)C1)C2 [Compound I-31] |
| < 50 | 50 to 200 | < 50 | Cc1c2c(n(C)c(=O)c1Cl)CN(C(=O)CC1CN(c3ccc(F)cc3)C1)C2 [Compound I-79] |
| 50 to 200 | 50 to 200 | 200 to 1000 | Cc1cc(=O)n(C)c2c1CN(C(=O)CC1CN(c3ccc(F)c(C(F)(F)F)c3)C1)C2 [Compound I-20] |
| 50 to 200 | 200 to 1000 | 200 to 1000 | Cc1cc(=O)n(C)c2c1CN(C(=O)CC1CN(c3ccnc(C4CC4)c3)C1)C2 [Compound I-22] |
| < 50 | < 50 | < 50 | Cc1c2c(n(C)c(=O)c1C)CN(C(=O)CC1CN(c3ccc(C4CC4)c(F)c3)C1C)C2 (single isomer, unassigned) [Compound I-61] |
| < 50 | 50 to 200 | 50 to 200 | Cc1c2c(n(C)c(=O)c1C)CN(C(=O)CC1CN(c3cc(F)cc(F)c3)C1)C2 [Compound I-56] |
| 50 to 200 | 200 to 1000 | < 50 | COc1c2c(n(C)c(=O)c1C)CN(C(=O)CC1CN(c3ccc(C(F)(F)F)cc3)C1)C2 [Compound I-100] |
| 50 to 200 | 200 to 1000 | 200 to 1000 | Cc1cc(=O)n(C)c2c1CN(C(=O)CC1CN(c3cccc(F)c3C)C1)C2 [Compound I-33] |
